Source: US8957022B2, “Multimeric tie 2 agonists and uses thereof in stimulating angiogenesis” (Sunnybrook Health Sciences Centre, priority 2006, dated 2015)

What was measured:
[1] = tested on: CD1 mice; assay: Matrigel plug angiogenesis assay; format: in vivo, mouse; conditions: for Vessel growth in plugs (confocal analysis): FITC lectin
Procedure: To further examine the in vivo angiogenic potential of Vasculotide, a Matrigel assay was performed. More specifically, growth factor reduced Matrigel (BD Biosciences) was impregnated with either clustered Vasculotide or one of several different control factors. These Matrigel samples were injected subcutaneously into the flank region of 3 month old CD1 mice. 14 days post implantation and immediately prior to sacrifice, FITC lectin (100 μg) was injected IV and allowed to circulate for 10 minutes, to facilitate vessel identification and quantification. Plugs were surgically resected and fixed in 4% paraformaldehyde (PFA) for 16 h. Images of vascular topology were taken using a Zeiss dissecting microscope at 4× magnification. Upon fixing, all plugs were whole mount stained with anti-Sma1-Cy3. Plugs were analyzed on a Zeiss Axiovert 100 M confocal microscope (Carl Zeiss) for three dimensional image reconstruction and photos were processed using LSM Image Browser and Adobe Photoshop 7.0. Morphometric quantification of vessel characteristics was performed by skeletonizing confocal image projections with Image Processing Tool Kit 5.0 (IPTK 5.0). Student's t test was used to test the statistical significance with a 95% confidence interval. All experiments were performed with three replicates each, with at least 5 random image stacks.
To more fully address and assign quantitative vessel parameters to the different treatment groups, the plugs were fixed and interrogated with laser confocal microscopy analysis combined with post processing image analysis (Image Processing Tool Kit 5.0, Reindeer Graphics, N.C.). Vessel parameters, including length, number and branch points (nodes) were quantified on at least six representative fields. Statistical analysis was performed by way of unpaired Student's t test. Bar graphs of the number of vessels, vessel length and number of nodes, for each treatment group, are shown in FIGS. 3A, 3B and 3C, respectively. It is noted that poor perfusion of FITC-lecithin into mice harboring 20 nM clustered Vasculotide plus VEGF plugs prevented statistical analysis, therefore bars are the mean of two separate fields. All other bars shown represent mean+/−SD.
Ang 1 has been reported to potentiate the recruitment of myogenic support cells (Suri, C. et al. (1996) Cell 87:1171-1180) and inhibit VEGF induced vascular permeability through mechanisms that are not well understood (Thurston, G. et al. (2000) Nat. Med. 6:460-463). To determine if Vasculotide, like Ang 1, was capable of initiating pericyte recruitment, whole mount immunofluorescence was performed against smooth muscle actin 1 (Sma1). […] Sma 1 staining was tightly associated with the exterior of the vessels and was enriched on larger vessels.

[2] = tested on: B6.Cg-m(+/+)Lepr(db)/J (db/db) mice; assay: Excisional wound healing in diabetic mice, topical application; format: in vivo, mouse
Procedure: Pathogen free, nine week old B6.Cg-m(+/+)Lepr(db)/J (db/db) mice were purchased from Jackson Laboratories. Circular, full excisional, 6 mm diameter wounds were made, according to animal committee approval guidelines, equal distant apart on the dorsal side of the mice. Various factors were suspended in sterile Intrasite Topical Gel (Smith and Nephew) at noted concentrations. Treatments were as follows: Vehicle n=8, bFGF (10 μg/ml) n=8, clustered Vasculotide (20 nM) n=4, clustered Vasculotide (5 nM) n=4. Preparations were applied at day 0 (time of wounding), day 2, 4 and 6. Standardized images were taken on days 0, 2, 4, 6 and 7 using a Canon EOS digital Rebel camera. Image J (NIH) was used to manually outline wound perimeter from which total pixel counts (wound area) were determined. Mice were sacrificed on day 7 and full wound beds including margin were excised and fixed in 4% PFA. Wounds were cut in half at the widest point and each half was prepared for either paraffin or frozen sections. Wax sections were processed according to standard protocols for H&E and Masson's Trichrome stain. Images were captured using a Leica DMLS compound light microscope and Pixel Link camera at 5× and 20×. Student's t test was used to test the statistical significance.
For histological scoring, sections were fixed in 4% paraformaldehyde, embedded in paraffin and sectioned and stained with H & E and Masson's trichrome. Sections were evaluated by a pathologist for re-epithelialization, granulation tissue formation, and inflammation, with criteria used for scoring skin as follows:
• 0—none • 1—minimal (0-20% regrowth from wound margins) • 2—mild (25% to 50% regrowth) • 3—moderate (>50% regrowth, up to 100% but not >2 cells thick along length) • 4—complete regrowth (epithelium>1 cell thick along length, keratinized) Granulation Tissue (GT) and Neovascularization: • 0—none • 1—minimal (1-3 small, isolated islands of GT at margins of defect) • 2—mild (multifocal, patchy islands of GT underlying tissue defect, <10 new blood vessels) • 3—moderate (locally extensive bands of GT underlying length of defect) • 4—marked (dense bands of GT at margins and underlying length of defect with collagen fibrils and numerous blood vessels) Inflammation (within Defect): • 0—none • 1—minimal (a few scattered neutrophils at margins of defect) • 2—mild (multifocal aggregates of up to 5 neutrophils underlying defect) • 3—moderate (multifocal aggregates of up to 10 neutrophils and occasional macrophages, minimal to mild edema) • 4—marked (locally extensive, dense neutrophilic infiltrates with lesser numbers of macrophages, mild-moderate edema)

[3] = tested on: HUVEC; assay: Modified Boyden chamber migration assay; format: cell-based, human; conditions: for Chemotactic cell migration versus no treatment: 4 hours, clustered Vasculotide 2 nM and 10 nM
Procedure: To test if Vasculotide, like Ang 1, was capable of promoting these processes, the effect of Vasculotide on EC migration was tested using a modified Boyden chamber assay. HUVEC were seeded at a density of 8.4×10^4 cells in 500 μl of F12 growth media plus 0.1% FBS in the upper chamber of an 8 μm pore size modified Boyden chamber (Falcon). 500 μl of F12 media plus 0.1% FBS plus various growth factors (Ang 1 (R& D Systems), unclustered or clustered Vasculotide, VEGF (R&D Systems) or clustered Vasculotide in combination with VEGF) or controls were placed in the bottom chamber. Cells were allowed to migrate for 4 hours in a 37° C., 5% CO2 incubator. Nonmigrating cells were scraped off, and filters were fixed in 100% methanol for 5 minutes, stained with Harris' Hematoxylin (BDH) for 10 minutes and washed twice with tap water for 3 minutes each. Filters were then mounted using Aquapolymount mounting medium. Cells that had migrated more than 50% of the way through the pore were scored as positive for migration.
Student's t test was used to test the statistical significance with a 95% confidence interval. Stimulations were performed in triplicate and migrating cells in 6 microscopic fields per replicate were counted.

[4] = tested on: MMP2; assay: Gelatin zymography of HUVEC conditioned media; format: cell-based, human; conditions: HUVEC, 0.1% FBS, 16 h, various concentrations
Procedure: In vivo, ECs can not migrate until they secrete enzymes necessary to break down components of the extra cellular matrix. Gelatin zymography was employed to determine if clustered Vasculotide promoted secretion of MMP2. To perform the zymography, HUVEC were cultured in F12 media plus 0.1% FBS and stimulated for 16 h with VEGF, unclustered Vasculotide or clustered Vasculotide at various concentrations. Conditioned media was centrifuged to remove cellular debris and prepared for gel electrophoresis using non-reducing conditions. Gels were washed twice for 30 minutes in 2.5% Triton X-100 to remove sodium dodecyl sulfate and were then incubated in substrate buffer (50 mmol/L Tris-HCl, pH 8.8, 5 mmol/L CaCl2) for 16 hours at 37° C. Gels were then stained with 0.5% Coomassie blue in 30% methanol/10% acetic acid for 2 hours at room temperature and destained in 50% methanol/10% acetic acid. The presence of metalloproteinases was indicated by unstained proteolytic zones in the gel.

| Substance | Vessel growth in plugs (confocal analysis) ([1]; 14 days post implantation) | Granulation tissue production (H&E and MT staining) ([2]; day 7 wound sections) | Chemotactic cell migration versus no treatment [3] | Secretion of MMP2 (gelatin degradation, pro and active forms) [4] | Nature of vessels (arborization, tortuosity) ([1]; 14 days post implantation) | Angiogenic response in the membranous capsule surrounding the plugs ([1]; 14 days post implantation, subcutaneous) | Smooth muscle actin 1 (Sma1) staining, pericyte recruitment ([1]; whole mount immunofluorescence) | Benefit at lower concentration ([2]; 5 nM versus 20 nM) | Inflammation (histological score) ([2]; 5 nM, p=0.0979) | Regranulation and neovascularization (histological score) ([2]; 20 nM and 5 nM p=0.0006) | Wound margin (pixel counts) at day 2 ([2]; 20 nM topical, p=0.05, n=4) | Re-epithelialization (histological score) ([2]; 20 nM, p=0.0004 and 5 nM, p=0.029) | Inflammation (histological score) ([2]; 20 nM, p=0.034) | Overall collagen deposition (Masson's Trichrome) ([2]; both concentrations, compared to vehicle and bFGF) | Lymphangiogenesis (podoplannin-positive vessels) ([2]; immunohistochemistry) | PECAM1- and Pan EC-positive vessels within the granulation tissue ([2]; immunohistochemistry, 5 nM and 20 nM) | Margin closure for the duration of the assay ([2]; topical, days 0-7) | Migration compared with VEGF or Ang 1 ([3]; VEGF 100 ng/ml, Ang 1 500 ng/ml (FIG. 2B legend)) |
| --- | --- | --- | --- | --- | --- | --- | --- | --- | --- | --- | --- | --- | --- | --- | --- | --- | --- | --- |
| Vasculotide: biotinylated T7 peptide-PEG: Cys-His-His-His-Arg-His-Ser-Phe (SEQ ID NO: 2) conjugated to EZ-link-PEO-maleimide-biotin | no significant vessel growth | dramatic increases in granulation tissue production | did not promote migration above that seen in the untreated sample | – | – | – | – | – | – | – | – | – | – | – | – | – | – | – |
| clustered Vasculotide: Vasculotide clustered with avidin in a 4:1 ratio, an obligate tetrameric compound | robust induction of angiogenesis | – | significant increases in chemotactic cell migration | dose-dependently degraded gelatin | clear, large, well arborized vessels | distinct and robust angiogenic response | significant increase in overall Sma 1 staining | seemed to offer more benefit | not significantly different from vehicle | profound increases in regranulation and neovascularization | Significant decreases in wound margin | delayed re-epithelialization | only slightly increased | dramatically increased | not accompanied by an increase in lymphangiogenesis | dramatic increases in the number of PECAM1- and Pan EC-positive vessels | continued at an accelerated pace | not significantly different than that seen in samples treated with VEGF or Ang 1 |
